Experimental data published in patent US20260364186A1, “Chemical Conjugates, Compositions, and Methods of Preparation and Use Thereof” (Transfection Holdings Limited, priority 2022, published 2026).
Entries after “also recorded” stand apart in the source; their conditions may differ. Values belong to the compound of their own block, whether it stands above or below them.

What was measured:
[1] = tested on: NZM11 melanoma cancer cell line; assay: FACS uptake of BODIPY FL conjugates, 50 nM, 5 min (Example 1); type: cell-based, human
Method: FIG. 1. Conjugate compounds coupled to BODIPY FL were tested for uptake using 50 nM each conjugate and 5 minute incubation with HEM (human epidermal melanocytes) and melanoma cell line NZM11 (BRAF V600E mutant metastatic melanoma). Mean fluorescent intensities (MFI). For these tests, n=300-500, mean±SD. Results were from a single experiment done in triplicate. Cells were sorted by FACS.
Materials and methods: NZM11 is an adherent metastatic melanoma cell derived from a patient with a subcutaneous lesion on their mid back. This human metastatic melanoma is identified with code CBA-1398 from Cell bank Australia. […] Cells of NZM11 diluted in MEMα media and cells of HEMnDP (primary melanocyte cell line) diluted in media 254 were left to settle in 96-wells microplate for 48 hours. 10 μL of 10 mM stock solutions in DMSO from 138 and pantothenic acid/pantothenic acid derivatives coupled to BODIPY were diluted with HBSS to afford 100 nM solution. Then, 100 nM compounds and DMSO solutions were diluted 1:1 with MEMα media for NZM11 and media 254 for HEMnDP to afford 50 nM solutions. After the 48 hour settle time, media was removed from the cells and 200 μL of 50 nM media solutions were poured to each well and incubated for 5 minutes at 37 °C. […] The FACS results output represented the mean of the fluorescence intensities (in arbitrary units) measured for cells sorted in every sample

[2] = tested on: mouse embryonic fibroblasts MEF; assay: FACS uptake of BODIPY FL conjugates (Example 4); type: cell-based; conditions: 200 nM, 5 min, S enantiomer vs R
Method: FIG. 4B: Conjugate compounds coupled to BODIPY FL were tested for uptake using 200 nM each conjugate and 5 minute incubation with mouse embryonic fibroblasts MEF. Mean fluorescent intensities (MFI). 1,000 cells were sorted by FACS.
Fibroblasts are ubiquitous mesenchymal cells that are thought to play important roles in wound repair and healing, and serve as reservoirs of multipotent progenitors capable of repopulating depleted cell compartments. Primary mouse embryonic fibroblast (MEF) cultures consist of highly heterogeneous populations of distinct cell types. Singhal, P. K., et al., 2016. MEF cells have a limited growth capacity and on prolonged passaging spontaneously immortalize at a low frequency. In contrast to transformation of primary MEF cells that requires the presence of two cooperating oncogenes, immortalised MEF cells can be transformed by a single oncogene (Ras) resulting in a loss of contact inhibition, anchorage-independent growth, and tumour formation in nude mice. Studies of MEF cells have played an important role in the elucidation of the molecular mechanisms underlying cellular immortalization, transformation, and tumorigenesis. Additionally, utilization of MEF cells disrupted for specific genes has provided a powerful tool to analyse the genetic regulation of these cellular processes. Sun and Taneja, 2007. […]

[3] = tested on: NZM011, NZM009, NZM012, NZM022 and NZM077 cells; assay: Flow cytometry uptake into metastatic melanoma lines (Example 11); type: cell-based, human; conditions: 200 nM, 30 minutes, five cell lines
Method: FIG. 11: Uptake for compounds 124, 126, and 132 at 200 nM and 30 minute incubation with melanoma cell lines: NZM12 (NZM012) (BRAF V600E mutant metastatic melanoma, homozygous deletion CDKN2A and low invasive cell line), NZM77 (NZM077) (BRAF V600E mutant metastatic melanoma and missense NF1), NZM22 (NZM022) (BRAF G466A mutant metastatic melanoma, P53 241S/T mutant, NF1 non-frameshift insertion and PTEN epigenetic silencing). NZM9 (NZM009) (P53 179C/T mutant and homozygous silencing CDKN2A). NZM11 (NZM011) (BRAF V600E mutant metastatic melanoma and homozygous deletion CDKN2A), as positive control. Mean fluorescent intensities (MFI). 1,500-2,000 cells were obtained. Bars represent mean±SD. Results are from a single experiment done in triplicate. Cells were analysed by FACS.
Methods: For screening, NZM011, NZM009, NZM012, NZM022 and NZM077 cells were suspended at 250 cells per μL in MEMα media and 200 μL was dispensed into 96 well plates. The cells were left to settle for 24 hours for NZM011, NZM012 and NZM077 and 48 hours for NZM009 and NZM022 at 37 °C, 5% O2, 5% CO2. Before addition to the cells, 10 μL of 10 mM stock solutions in DMSO of compounds 124, 126, and 132 were diluted with 1% FBS MEMα media to give a 200 nM solution.
After the appropriate settle time, the media was removed from the 96 well plates and 200 μL of 200 nM conjugate solutions and DMSO control were dispensed to each well (in triplicate) and incubated for 30 minutes at 37 °C, 5% O2, 5% CO2. After 30 minutes, the media was removed and cells washed with PBS. Next, 100 μL of TrypLE trypsin (ThermoFisher Scientific) was added to each well and incubated for 5 minutes at 37 °C. After this, 150 μL of MEMα media (plus 1% FBS for NZM011, NZM012 and NZM077; plus 5% FBS for NZM009 and NZM022) were added. Cells were analysed by flow cytometry using a FACS biosort and FITC filter. Flow cytometry results represent the mean of the fluorescence intensities (in arbitrary units) measured for cells sorted in every sample.

[4] = tested on: Jurkat cells; assay: Flow cytometry time course of uptake (Example 12); type: cell-based, human; conditions: 200 nM
Method: FIG. 12: Time course of uptake for compounds 124, 126, and 132 at 200 nM after 5, 30 or 60 minute incubation with Jurkat cells. Mean fluorescent intensities (MFI). 1,000 cells were sorted by FACS. Bars represent mean±SD. Results represents a single experiment done in triplicate.
Materials and methods: For this study, 7.7×10^5 Jurkat cells were centrifuged for 5 minutes at 2500 RPM. The supernatant was removed and the cells were diluted in RPMI media (supplemented with 1% FBS+1% penicillin-streptomycin) to 400 cells/μL. Next, 28 μL of 100 μM stock solutions from compound 124, 126, or 132 were diluted with 6972 μL of RPMI media (supplemented with 1% FBS+1% penicillin-streptomycin) to give a 400 nM solution. Following this, 250 μL of conjugate solutions (giving a 200 nM final concentration) and 250 μL of cell suspensions were then added to each well in a 96 well plate. In addition, 250 μL of media only was added to the DMSO control wells. Incubation was carried out for 5, 30 and 60 minutes at 37 °C in triplicate wells for each compound and time point.
After incubation, cells were centrifuged for 1.5 minutes at 5000 RCF. Supernatant was removed and the cell pellet re-suspended in 200 μL fresh RPMI media, transferred to 96 well-plate and each cell suspension analysed by flow cytometry. Flow cytometry results represent the mean of the fluorescence intensities (in arbitrary units) measured for cells sorted in every sample.

[5] = tested on: glioblastoma cells; assay: Protein content after 48 hour incubation (Example 9); type: cell-based, human; conditions: 5, 25 and 100 μM
Method: FIGS. 10A-10B: Protein content of glioblastoma cells after 48 hour incubation with compound 138 or PA at 5, 25 and 100 μM final concentration. To indicates protein levels at the beginning of the test. Control indicates protein levels in cells which were incubated for 48 hours without exposure to 138 or PA.
(§1) Glioblastoma cells were used to determine viability and growth by measurement of protein levels. Protein content of glioblastoma cells was determined after 48 hour incubation with compound 138 or PA at 5, 25 and 100 μM final concentration. For To, protein levels were determined at the start of the test (before addition of test compounds). For the control, protein levels were determined for cells incubated for 48 hours in the absence of the test compounds. Astrocytes were used as a non-cancer cell line control. U87: this cell line has epithelial morphology that was isolated from malignant gliomas from a patient, likely with glioblastoma. SF188: this glioblastoma cell line was derived from the left temporal lobe tumour of a patient. U251: this cell line expresses epidermal growth factor receptor (EGFR) receptors, for inhibition studies. LN229: This cell line has a mutation on TP53; Simple; p.Pro98Leu. LN18: This cell line is negative for glial fibrillary acidic proteins and S100 (S-100) protein. […] GUVW cells were also utilised.

[6] = tested on: astrocytes; assay: as above; type: cell-based, human; conditions: 5, 25 and 100 μM
Method: as §1

[7] = tested on: NZM11 (BRAF V600E mutant metastatic melanoma) cells; assay: Sulforhodamine B (SRB) assay of viability / proliferation, auranofin conjugates (Example 8); type: cell-based, human; conditions: 200 μM, 48 hours
Method: FIG. 8: Effect of 136 and 137 (auranofin conjugates) on viability of NZM11 melanoma cells. Cells were incubated with 136 and 137 at 10 μM final concentration and kept at 37 °C for 48 hours. Pantothenic acid (PA), CJ-15,801, and biotin were tested at 200 μM final concentration. […] Two batches of auranofin were tested at 10 μM final concentration.
FIG. 9: The viability data from FIG. 8 was normalised to the treatment plate and DMSO control and plotted as a percentage of cell growth. Individual data points represent technical replicates. Curve indicates non-linear regression slope, which allows determination of IC50 values.
Materials and methods: NZM11 cells were cultured in MEMα media with an initial count of 1020 cells/μL. The cells were then diluted to get 25 cells per μL and 200 μL of this suspension (5000 cells per well), dispensed into 96 well plates and left to settle for 24 hours. 10 mM stock solutions of 136, 137, and auranofin were diluted with 1% FBS MEMα media to give 10 nM, 30 nM, 100 nM, 300 nM, 1 μM, 3 μM, 10 μM, 30 μM and 100 μM solutions. After 24 hours the media was removed from the 96 well plates. To individual wells 200 μL of each dilution were dispensed in triplicate for three groups (136, 137, and auranofin): 1% FBS MEMα media only (DMSO control), 10 nM, 30 nM, 100 nM, 300 nM, 1 μM, 3 μM, 10 μM, 30 μM and 100 μM. The cells were incubated at 37 °C, 5% 02 and 5% CO2 for 48 hours.
In order to test the potency of 136 and 137, the IC50 values were calculated for these auranofin conjugates. For analysis of the treatment plate (Tz) a SRB assay was utilised. For this assay, 50 μL of 50% (w/v) ice-cold trichloroacetic acid (TCA) was added to each well. To achieve this, 5 g of TCA was made up to 10 mL with milliQ H2O. This was cooled on ice. Incubation was carried out for 1 hour at 4 °C to fix cells. TCA and media were removed from cells. Five milliQ washes were carried out and the plate was left to air dry. Next, 50 μL of 0.4% SRB solution (prepared in 1% acetic acid) was added to each well and incubated for 10 minutes at room temperature. The SRB solution was removed and five milliQ washes were carried out. Then, 100 μL of 10 mM Tris solution was added to each well, and the dye was solubilised. Absorbance at 515 nm was read on plate reader. Data was normalized to Tz plate, as per NCI60 screening method (https://dtp.cancer.gov/discovery_development/nci-60/methodology.htm).

[8] = tested on: melanoma cell lines; conditions: previous results, read-out: concentration showing inhibition of 50% of the population; cited from earlier work

Structure (SMILES): CC1=CC(C)=[N+]2C1=Cc1ccc(CCCn3cc(CCNC(=O)/C=C/NC(=O)[C@@H](O)C(C)(C)CO)nn3)n1[B-]2(F)F [Compound 126, (E)-N-((((3-[4,4-Difluoro-5,7-dimethyl-4-bora-3a,4a-diaza-s-indacene-3-yl]propyl)-1H-1,2,3-triazol-4-yl)ethylamino)-3-oxoprop-1-enyl)-2,4-dihydroxy-3,3-dimethylbutanamide]
mean intensity compared to the 124 conjugate [1]: 25%
lower intensities than the R derivatives [2]: around 50%
times less uptake than 124 [3]: 5-12 times
time of highest uptake [4]: 60 min
times lower than 124 uptake ([4]; 60 minutes): 4 times
uptake increase compared to DMSO control ([4]; 60 minutes): three times higher

Structure (SMILES): CC(C)(CO)[C@@H](O)C(=O)NCCC(=O)O [pantothenic acid]
protein content / protein levels [5]: comparable content of proteins with the control; also recorded: little to no effect on protein levels
protein content / protein levels [6]: comparable content of proteins with the control; also recorded: little to no effect on protein levels

protein content / protein levels [5]: little to no effect on protein levels
protein content / protein levels [6]: little to no effect on protein levels
Structure (SMILES): CC(C)(CO)[C@@H](O)C(=O)N/C=C/C(=O)O [Compound 138, (R,E)-3-(2,4-Dihydroxy-3,3-dimethylbutanamido)acrylic acid]
viability / cell proliferation [7]: little to no effect on cell proliferation

Structure (SMILES): CC[P](CC)(CC)=[Au][S][C@@H]1O[C@H](COC(C)=O)[C@@H](OC(C)=O)[C@H](OC(C)=O)[C@H]1OC(C)=O [auranofin]
IC50 [8]: ≤ 500 nM
